# Source: article PMC9887206, “Cationic biopolymer decorated Asiatic Acid and Centella asiatica extract incorporated liposomes for treating early-stage Alzheimer’s disease: An In-vitro and In-vivo investigation” (F1000Research, 2022)
# Experiments:
# [1] = In-vitro antioxidant activity (DPPH inhibition); type: biochemical; settings: at 50 μg/mL, n ≥ 3
# Method: The prepared formulations' and AA's abilities to neutralise free radicals were determined in vitro and compared with standard ascorbic acid. In this method, free radical DPPH (2,2-diphenyl-1-picrylhydrazyl) was selected as described by Jamuna S. et al. 1.5 mL of 0.1mM free radial DPPH was treated with 3.5mL of 10 to 50 μg/mL concentrated methanolic solution of AA, CAE, optimised CLCAE, and CLAA. The absorbance of all the samples was measured at 518 nm through ELISA plate reader (version AM-2100, USA). The percentage of DPPH inhibition was measured through the formula. %Inhibition of DPPH=Absorptioncontrol−Absorptionsample/Absorptioncontrol×100
# [2] = In-vitro drug release, Franz diffusion cell with dialysis membrane; type: physicochemical; settings: in around 10 hours
# Method: The % drug release from CLCAE and CLAA were measured through Franz diffusion cell using sigma dialysis membrane and the release rate was compared with AA and CAE. 1 mL sample (100 mg/mL) was kept on one side, while the other part of the membrane was filled with the acidic buffer pH 1.2 (200 mL) dissolution media for two hours. It was then replaced with phosphate buffer pH 7.2 (2–24 hours) with 0.25% w/v sodium lauryl sulphate as two separate media to simulate the stomach and intestinal conditions. The media were sustained at the temperature of 37°C on a magnetic stirrer. A 5 mL sample was withdrawn with the specific intervals and the condition of the sink was kept constant by refilling the same volume of media. Samples were analysed and compared using RP-HPLC at 210 nm. To assess the drug release strategy from the optimised CLAA, the data were fitted to various in vitro kinetic release models like Korsmeyer-Peppas, Higuchi, Zero and First Order models. ^, [36]
# [3] = cited from earlier work
# [4] = Oral bioavailability study, AA in rat serum; type: in vivo, wistar rats
# Method: The sum of drug availability after oral intake of AA, CLCAE, and CLAA was performed on three groups of 150-200g wistar rats (n=6). Prior to the procedure, the animals underwent an overnight fast with unlimited access to water. Group I was treated with a single dose of AA (100 mg/kg,p.o.) whereas group II, and III animals received single dose of optimised CLCAE and CLAA (~100 mg/k.g AA, p.o.), respectively. After the dosing, the animals were partially anesthetised using […], from the retro-orbital plexus 1 mL of blood samples were collected in centrifuge tubes at a predetermined time of up to 8 h. To isolate the contents, the serum sample was spun up at 3000 rpm for 10 min. The AA was quantified by RP-HPLC.
# Initially, the mixture of 1 mL serum and 5 mL methanol were taken in a volumetric flask at room temperature. The sample was properly mixed before being heated for 30 min at 55°C. After that, a 10 mL flask was made up with methanol and centrifugation for 30 min at 5000 rpm (Remi Elektrotechnik Ltd. India). 20 μL of filtered supernatant was taken for analysis.
# Depends on plasma concentration-time curve parameters, the C max and T max of CLCAE and CLAA were analysed. The pharmacokinetic parameters were successfully interpreted through PK/PD computer software version 4.1, USA, which includes measurement drug plasma concentration from zero to last measured sample (AUC 0 -t) and from zero to infinity (AUC 0-∞) measurement of drug elimination half-life (K 1/2el) and elimination rate constant (K el) clearance (Cl) and volume of distribution (V d). The relative bioavailability (F) of both the formulations was determined using the following formula. F=Total amount of drug absorbed from formulation(Amaxformulation)/Total amount of drug absorbed from pureAAAmaxpureAA×100 F=VdXKelXAUC0−∞formulation/VdXKelXAUC0−∞pureAA×100
# [5] = Ex vivo drug permeation, non-everted gut sac; type: in vitro ADME, rats; settings: throughout 8 hours, non-everted rat intestinal sac
# Method: The drug intestinal permeation studies of both the optimised formulations were determined using non-everted gut sac procedure. ^, [40] The rats were sacrificed and small intestine was treated with oxygenated saline. The intestine was split into […] sacs that were 8 cm long and loaded with optimised CLCAE and CLAA (~100 mg AA). The thread was used to bind the sac's ends and located in a conical flask filled with ringer’s solution of pH 9 (10 ml). 37°C temperature was kept constant in a water bath shaker at 75 rpm with 5% CO 2 aeration. Every 20 min, for a maximum of 8 h, the samples were removed and substituted with the fresh media. RP-HPLC was used to analyse the screened sample.
# [6] = rat p.o; cited from earlier work
# [7] = Wistar, single oral dose ~100 mg/kg AA
SMILES,Percentage of inhibition of DPPH [1],In vitro drug release [2],Solubility in water [3],BCS class ([3]; poor aqueous solubility and permeability),"Tmax ([4]; Wistar, 100 mg/kg, single oral dose, read-out: Time of maximum serum concentration)","AUC(0-t) [4, 7]","Cmax [4, 7]","half-life ([4]; Wistar, single oral dose ~100 mg/kg AA, read-out: Elimination half-life (t1/2el) (converted))","k el ([4]; Wistar, single oral dose ~100 mg/kg AA, read-out: Elimination rate constant (Kel) (converted))",Maximum serum concentration ([4]; single oral dose),Clearance (Cl) ([4]; single oral dose ~100 mg/kg AA),Volume of distribution (Vd) ([4]; single oral dose ~100 mg/kg AA),Amount of drug permeated (ex vivo) [5],LD50 [6]
"C[C@H]1[C@H](C)CC[C@]2(C(=O)O)CC[C@]3(C)C(=CC[C@@H]4[C@@]5(C)C[C@@H](O)[C@H](O)[C@@](C)(CO)[C@@H]5CC[C@]43C)[C@H]12 [AA, Asiatic acid]",65.4 ±1.2%,65.34%,insoluble in water,BCS IV,4 h,40500 ± 1160 ng·h/mL,3430 ± 120 ng/mL,118 ± 6 min,0.000142 s⁻¹,3.43 ± 0.12 µg/mL,0.55 ± 0.002 L h ^−1,1.62 ± 0.26 L,30.90%,–
ClCCl [dichloromethane],–,–,–,–,–,–,–,–,–,–,–,–,–,1.2 g/kg
"O=C1O[C@H]([C@@H](O)CO)C(O)=C1O [ascorbic acid, reference compound]",90.75 ± 1.45%,–,–,–,–,–,–,–,–,–,–,–,–,–
